Consider one compound from patent publication US8580776B2, “Compositions and methods for treating neurodegenerating diseases” (The Board of Trustees of the University of Illinois, priority 2007, dated 2013).

Assay [1] relates to astrocyte marker GFAP. Nature of the assay: Glial activation: GFAP staining of brain sections. Format: in vivo, mice. On the procedure:
The effects of DSP4 treatment on glial activation were assessed in hippocampus and frontal cortex by staining for microglial marker Mac1 and astrocyte marker GFAP (FIG. 3). Sections from vehicle and DSP4 treated H6 mice brains were stained with antibodies directed against Mac1 to assess microglial activation (FIG. 3A-C); and GFAP to assess astrocyte activation (FIG. 3D-F). […] FIGS. 3G-3I show quantitative analysis of Mac1 (FIG. 3G-3H) and GFAP staining (FIG. 31).
Hemibrains were fixed overnight in 4% paraformaldehyde in 0.1M phosphate buffer, then overnight in 10% sucrose in 0.1M phosphate buffer, and then frozen in isopentane at −30° C. Serial sections (35 um thick) were prepared on a cryostat, and stored in cryoprotective solution (0.1M phosphate buffer: ethyleneglycol:glycerol 30:40:30) at −20° C. […] Staining was quantified using software provided by the manufacturer (Zeiss AxioVision). GFAP and Mac1 staining was quantified in 3 different areas on each of 4 serial sections for each animal (n=3 or 4 for Mac1; n=7 or 9 for GFAP staining) The data was average area stained per section (as % total area) from DSP4-treated (n=3 for Mac1; n=7 for GFAP) and vehicle-treated (n=4 for Mac1; n=9 for GFAP) mice. […]

Assay [2] has as its system TgAPP H6 mice. The assay can be described thus: Amyloid plaque burden (Aβ1-42 staining) in brain sections of TgAPP H6 mice. Type of assay: in vivo. The source says: Transgenic mice (H6) overexpressing the Indiana V717F mutation of human APP under control of the PDGFR promoter (Mucke et al., 2000, “High-level neuronal expression of abeta 1-42 in wild-type human amyloid protein precursor transgenic mice: synaptotoxicity without plaque formation,” J Neurosci 20:4050-8) were obtained from Dr. Lennart Mucke (J. David Gladstone Institute, San Francisco, Calif.). Male hemizygous H6 mice were bred to wild type C57BL6 (Charles River Breeding) females to obtain hemizygous progeny. Genotype was verified by PCR analysis of tail DNA using the forward primer 5′-GGTGAGTTTGTAAGTGATGCC-3′ (SEQ ID NO:1) and reverse primer 5′-TCTTCTTCTTCCACCTCAGC-3′ (SEQ ID NO:2). Animals were housed in groups of four under standard conditions with full access to food and water.
Hemizygous male H6 mice (aged 3 to 4 months) were injected with vehicle or with DSP4 (5 mg per kg; i.p., every two weeks) and all mice were sacrificed at age 9 months. This protocol (a low, chronic dose) results in 70% loss of LC noradrenergic neurons. Brains were dissected, the left hemispheres were fast frozen in isopentane at −30° C. and stored at −80° C. for subsequent protein and RNA studies. The right hemispheres were processed for immunohistochemistry.
TgAPP H6 mice were treated with DSP4 (5 mg/kg every two weeks) beginning at age 3-4 months, and brain sections analyzed at age 9 months (FIGS. 1A-1B). Hemibrains were fixed overnight in 4% paraformaldehyde in 0.1M phosphate buffer, then overnight in 10% sucrose in 0.1M phosphate buffer, and then frozen in isopentane at −30° C. Serial sections (35 um thick) were prepared on a cryostat, and stored in cryoprotective solution (0.1M phosphate buffer: ethyleneglycol: glycerol 30:40:30) at −20° C. For Aβ1-42 staining, sections were treated with formic acid (95%, 3 min), incubated overnight at 4° C. with primary antibody directed against Aβ1-42 (1:4000 dilution, Calbiochem FCA3542 rabbit polytonal antibody raised against a synthetic peptide corresponding to amino acids 706-713 of human APP), washed, then incubated with anti-rabbit biotinylated secondary antibody (Vector BA-1000, diluted 1:400) and visualized using an ABC kit (Vector). For quantification of Aβ plaques, for each animal (n=6 vehicle treated and n=6 DSP4 treated mice) 8 stained, serial sections separated by 210 μm and spanning approximately 1.5 mm between Bregma points −1.50 mm to −3.00 mm were mounted onto glass slides and imaged with a Zeiss Axiophot 2 microscope, equipped with an Axiocam B&W MRm camera. Sections were viewed at 100× using a 10× objective, and the average plaque number and % area stained (relative to the total section area of 21 mm^2) per section were determined. The threshold of brightness intensity (range black=0 to white=255) used for selection of plaques was established by determining average pixel intensity from 3 areas devoid of staining, and then adjusting that value to maximize inclusion of all visibly-stained plaques while minimizing inclusion of background areas. This value was used for all sections (all stained at the same time). For all sections, visual inspection following automated counting was done to ensure exclusion of meninges, ventricular space, or other artifacts.
Representative sections from vehicle (FIG. 1A, containing 19 plaques) and DSP4 treated (B, containing 64 plaques) mice are shown in FIG. 1. Plaque burden (number and area stained) was quantified using Axiovision 4.5 Measurement Wizard software. Sections were viewed at 100× using a 10× objective, and the average plaque number (FIG. 1C) and % area stained (FIG. 1D, relative to the total section area of 21 mm^2) per section determined (n=8 sections per animal). The data was analyzed by two-tailed t-test assuming equal variances; *, P <0.05. The relative size distribution for all plaques detected in vehicle (n=626) and DSP4 treated (n=3009) brain sections is shown (FIG. 1E). […]

`CCN(CCCl)Cc1ccccc1Br` [DSP4, N-(2-chloroethyl)-N-ethyl-2-bromobenzylamine]: in assay [1] (low levels of staining, not shown), the “GFAP staining, frontal cortex” value is “little effect”. Also, the “increase in GFAP staining, hippocampus” value in assay [1] (versus vehicle, significant) is on record as “approximately 68%”. The average plaque number in assay [2] (DSP4 5 mg/kg every two weeks, age 9 months, vehicle 13.5±3) amounted to 62.7±18 per section. Also, in assay [2] (DSP4 5 mg/kg every two weeks, age 9 months, vehicle 1,810±464), the average area stained was 11,100±3,000 μm^2. Further, in assay [2] (DSP4 sections, vehicle 1/626), the “plaques >5,000 μm^2 out of all plaques detected” value was 16/3009. Further, in assay [2] (age 9 months), the “relative plaque size distribution” value is reported as “did not significantly alter”. Also, the “increase in plaque number” value in assay [2] (age 9 months, versus vehicle) is 5 fold. Besides, the “area stained as % total sectional area” value in assay [2] (age 9 months, vehicle 0.008%) was determined as 0.051%. Further, the “plaque appearance in non-transgenic wild type littermates” value in assay [2] (data not shown) was “did not induce plaque appearance”. The average plaque size in assay [2] (n=3009 plaques, vehicle 135±18, increase not statistically significant) is on record as 174±8 μm^2. In assay [2] (out of 3009 counted), the “plaques with size greater than 7,000 μm^2” value is 13 out of 3009. For the same compound, the “plaques in representative section” value in assay [2] (representative section FIG. 1B, vehicle 19) turned out to be 64 plaques.
